Data as given in US20230247991A1, “ANTIMICROBIAL MIXTURE CONTAINING 4-(3-ETHOXY-4-HYDROXYPHENYL)BUTAN-2-ONE AND AN ORGANIC ACID COMPOUND, AND COSMETIC COMPOSITION CONTAINING SAME” (L'OREAL, priority 2017, published 2023).
Where “and” joins values, the source holds several entries; their conditions need not be identical. Identical values can stand only once. Values belong to the compound of their own block, whether it stands above or below them.

Key:
Assay in all cases: MIC / FIC index synergy test, 96-well microplate, optical density at 620 nm
Assay type in all cases: cell-based
[1] = system: Enterococcus faecalis ATCC 33186; conditions: compound alone; for % MIC alone: first concentration giving growth <= 25%
Source text: (§1) FIC Index=([…]) with: • MICa with B: minimum concentration of product A in the combination A+B which makes it possible to obtain an inhibitory effect • MICb with A: minimum concentration of product B in the combination A+B which makes it possible to obtain an inhibitory effect. • MICa: minimum inhibitory concentration of product A alone. • MICb: minimum inhibitory concentration of product B alone. […] As regards the combinations tested, MICa with b and MICb with a are the respective concentrations of A and of B in the combinations which make it possible to obtain a microbial growth percentage of less than or equal to 25%. […] The microbial strain Enterococcus faecalis ATCC 33186 and a double-concentration BHI (Brain Heart Infusion) broth liquid culture medium were used. A 96-well microplate and an incubation temperature of 32.5° C. are used. […] Successive dilutions were made with the 1‰ agar solution. 50 μl of each of the daughter solutions obtained containing compound A or B are added to the microplate wells. 100 μl of Sabouraud liquid nutrient broth inoculated at double concentration with the strain Candida albicans and 50 μl of aqueous 1‰ agar solution are also added thereto. 50 μl of each of the daughter solutions obtained containing compound A and 50 μl of each of the daughter solutions obtained containing compound B are added to the microplate wells. 100 μl of Sabouraud liquid nutrient broth inoculated at double concentration with the strain Candida albicans are also added thereto. […] The test as described above (tests, absorbance controls and growth control) was performed again to test the combination A+B on the following strains Enterococcus faecalis, Staphylococcus aureus, Pseudomonas aeruginosa, Candida albicans.

[2] = system: Pseudomonas aeruginosa ATCC 9027; conditions: for microbial growth percentage: compound alone; for MIC of compound alone: first concentration giving growth <= 25%
Source text: as §1, with “strain Pseudomonas aeruginosa” for “strain Enterococcus faecalis”, “ATCC 9027” for “ATCC 33186”, “double-concentration nutritive” for “double-concentration BHI (Brain Heart Infusion)”

[3] = system: Aspergillus niger ATCC 6275
[4] = system: Staphylococcus aureus ATCC 6538; conditions: compound alone; for MIC alone: first concentration giving growth <= 25%
Source text: FIC Index=([…]) with: • MICa with B: minimum concentration of product A in the combination A+B which makes it possible to obtain an inhibitory effect • MICb with A: minimum concentration of product B in the combination A+B which makes it possible to obtain an inhibitory effect. • MICa: minimum inhibitory concentration of product A alone. • MICb: minimum inhibitory concentration of product B alone. […] As regards the combinations tested, MICa with b and MICb with a are the respective concentrations of A and of B in the combinations which make it possible to obtain a microbial growth percentage of less than or equal to 25%. When the FIC index value is less than or equal to 1, it is considered that the combination of test compounds has a synergistic effect. The microbial strain Staphylococcus aureus ATCC 6538 and a double-concentration nutritive broth liquid culture medium were used. A 96-well microplate and an incubation temperature of 32.5° C. are used. […] Successive dilutions were made with the 1‰ agar solution. 50 μl of each of the daughter solutions obtained containing compound A or B are added to the microplate wells. 100 μl of Sabouraud liquid nutrient broth inoculated at double concentration with the strain Candida albicans and 50 μl of aqueous 1‰ agar solution are also added thereto. 50 μl of each of the daughter solutions obtained containing compound A and 50 μl of each of the daughter solutions obtained containing compound B are added to the microplate wells. 100 μl of Sabouraud liquid nutrient broth inoculated at double concentration with the strain Candida albicans are also added thereto. […] The test as described above (tests, absorbance controls and growth control) was performed again to test the combination A+B on the following strains Enterococcus faecalis, Staphylococcus aureus, Pseudomonas aeruginosa, Candida albicans.

[5] = system: Candida albicans ATCC 10231; conditions: compound alone; for MIC alone: first concentration giving growth <= 25%
Source text: FIC Index=([…]) with: • MICa with B: minimum concentration of product A in the combination A+B which makes it possible to obtain an inhibitory effect • MICb with A: minimum concentration of product B in the combination A+B which makes it possible to obtain an inhibitory effect. • MICa: minimum inhibitory concentration of product A alone. • MICb: minimum inhibitory concentration of product B alone. […] The microbial strain Candida albicans ATCC 10231 and a double-concentration Sabouraud broth liquid culture medium were used. A 96-well microplate and an incubation temperature of 32.5° C. are used. […] Successive dilutions were made with the 1‰ agar solution. 50 μl of each of the daughter solutions obtained containing compound A or B are added to the microplate wells. 100 μl of Sabouraud liquid nutrient broth inoculated at double concentration with the strain Candida albicans and 50 μl of aqueous 1‰ agar solution are also added thereto. 50 μl of each of the daughter solutions obtained containing compound A and 50 μl of each of the daughter solutions obtained containing compound B are added to the microplate wells. 100 μl of Sabouraud liquid nutrient broth inoculated at double concentration with the strain Candida albicans are also added thereto. In the two cases (test and control), the inoculum represents the concentration of the strain Candida albicans present in the final volume of the wells (200 μl) and is between 2 and 6χ 10^5 cfu/ml of Candida albicans.

[6] = compound alone, 0.0025 weight %
[7] = first concentration giving growth <= 25%

SMILES: CCOc1cc(CCC(C)=O)ccc1O [A, 4-(3-ethoxy-4-hydroxyphenyl)butan-2-one]
microbial growth percentage ([1]; 1 weight %): 15% and 28% and 16% | microbial growth percentage ([1]; 2 weight %): 24% | % MIC alone [1]: 1 weight % and 2 weight % | microbial growth percentage ([2]; 0.25 weight %): 79% and 78% and 87% | microbial growth percentage ([2]; 0.5 weight %): 74% and 52% and 64% | microbial growth percentage [3, 6]: 84% | microbial growth percentage ([3]; compound alone, 0.025 weight %): 65% and 62% | microbial growth percentage ([3]; compound alone, 0.05 weight %): 40% and 32% | microbial growth percentage ([3]; compound alone, 0.0625 weight %): 84% and 96% | microbial growth percentage ([3]; compound alone, 0.125 weight %): 40% and 41% | microbial growth percentage ([3]; compound alone, 0.25 weight %): 6% and 7% | microbial growth percentage ([3]; compound alone, 0.4 weight %): 5% | MIC of compound alone [3, 7]: 0.25 weight % and 0.1 weight % and 0.4 weight % and 0.2 weight % | microbial growth percentage ([4]; 0.0625 weight %): 67% and 63% and 66% | microbial growth percentage ([4]; 0.125 weight %): 65% and 60% and 61% | microbial growth percentage ([4]; 0.25 weight %): 55% and 52% and 51% | microbial growth percentage ([4]; 0.5 weight %): 5% and 1% | MIC alone [4]: 0.5 weight % | microbial growth percentage ([5]; 0.025 weight %): 55% and 56% and 61% and 74% and 53% | microbial growth percentage ([5]; 0.2 weight %): 6% | MIC alone [5]: 0.1 weight % and 0.2 weight %

SMILES: O=C([O-])c1ccccc1.[Na+] [B1, sodium benzoate]
microbial growth percentage ([2]; 0.0625 weight %): 93% | microbial growth percentage ([2]; 0.125 weight %): 96% | microbial growth percentage ([2]; 0.25 weight %): 116% | microbial growth percentage ([2]; 0.5 weight %): 89% | microbial growth percentage ([2]; 1 weight %): 0% | MIC of compound alone [2]: 1 weight % | microbial growth percentage ([4]; 0.0625 weight %): 51% | microbial growth percentage ([4]; 0.125 weight %): 34% | microbial growth percentage ([4]; 0.25 weight %): 31% | microbial growth percentage ([4]; 0.5 weight %): 5% | MIC alone [4]: 0.5 weight % | microbial growth percentage ([5]; 0.025 weight %): 55% | microbial growth percentage ([5]; 0.05 weight %): 33% | microbial growth percentage ([5]; 0.1 weight %): 24% | microbial growth percentage ([5]; 0.2 weight %): 11% | MIC alone [5]: 0.2 weight %

SMILES: C/C=C/C=C/C(=O)O [B2, sorbic acid]
microbial growth percentage ([1]; 0.25 weight %): 53% | microbial growth percentage ([1]; 0.5 weight %): 78% | microbial growth percentage ([1]; 1 weight %): 0% | % MIC alone [1]: 1 weight % | MIC of compound alone [2]: 0.5 weight % | microbial growth percentage ([3]; compound alone, 0.0125 weight %): 98% | microbial growth percentage ([3]; compound alone, 0.25 weight %): 95% | microbial growth percentage ([3]; compound alone, 0.5 weight %): 8% | MIC of compound alone [3, 7]: 0.5 weight % | microbial growth percentage ([4]; 0.125 weight %): 52% | microbial growth percentage ([4]; 0.25 weight %): 28% | microbial growth percentage ([4]; 0.5 weight %): −5% | MIC alone [4]: 0.5 weight % | microbial growth percentage ([5]; 0.025 weight %): 37% | microbial growth percentage ([5]; 0.05 weight %): 24% | microbial growth percentage ([5]; 0.1 weight %): 21% | MIC alone [5]: 0.1 weight %

SMILES: C/C=C/C=C/C(=O)[O-].[K+] [B3, potassium sorbate]
microbial growth percentage ([1]; 1 weight %): 22% | microbial growth percentage ([1]; 2 weight %): 10% | % MIC alone [1]: 2 weight % | microbial growth percentage ([3]; compound alone, 0.025 weight %): 58% | microbial growth percentage ([3]; compound alone, 0.05 weight %): 37% | microbial growth percentage ([3]; compound alone, 0.1 weight %): 10% | % MIC alone ([3]; compound alone, first concentration giving growth <= 25%): 0.1 weight %

SMILES: CC(=O)c1c([O-])cc(C)oc1=O.[Na+] [B8, sodium dehydroacetate]
microbial growth percentage [3, 6]: 97% | microbial growth percentage ([3]; compound alone, 0.005 weight %): 29% | microbial growth percentage ([3]; compound alone, 0.01 weight %): 3% | microbial growth percentage ([3]; compound alone, 0.02 weight %): 3% | MIC of compound alone [3, 7]: 0.02 weight % | microbial growth percentage ([5]; 0.00125 weight %): 28% | microbial growth percentage ([5]; 0.0025 weight %): 15% | MIC alone [5]: 0.0025 weight %

More lines, main results first:

MIC of compound alone [2]: 0.5 weight % | MIC alone [4]: 1 weight % | MIC alone [5]: 0.2 weight %
SMILES: COC(=O)c1ccc(O)cc1 [B4, methyl 4-hydroxybenzoate]
microbial growth percentage ([2]; 0.0625 weight %): 187% | microbial growth percentage ([2]; 0.125 weight %): 150% | microbial growth percentage ([2]; 0.25 weight %): 142% | microbial growth percentage ([2]; 0.5 weight %): 1% | microbial growth percentage ([4]; 0.25 weight %): 51% | microbial growth percentage ([4]; 0.5 weight %): 44% | microbial growth percentage ([4]; 1 weight %): 19% | microbial growth percentage ([5]; 0.025 weight %): 67% | microbial growth percentage ([5]; 0.05 weight %): 40% | microbial growth percentage ([5]; 0.1 weight %): 28% | microbial growth percentage ([5]; 0.2 weight %): 12%

MIC of compound alone [2]: 1 weight % | MIC alone [5]: 0.1 weight %
SMILES: CCCOC(=O)c1ccc(O)cc1 [B5, propyl 4-hydroxybenzoate]
microbial growth percentage ([2]; 0.125 weight %): 76% | microbial growth percentage ([2]; 0.25 weight %): 45% | microbial growth percentage ([2]; 0.5 weight %): 42% | microbial growth percentage ([2]; 1 weight %): 24% | microbial growth percentage ([5]; 0.025 weight %): 52% | microbial growth percentage ([5]; 0.05 weight %): 33% | microbial growth percentage ([5]; 0.1 weight %): 21%

% MIC alone [1]: 0.025 weight % | MIC of compound alone [3, 7]: 0.1 weight % | MIC alone [5]: 0.1 weight %
SMILES: CCCCCCCC(=O)c1ccc(O)c(C(=O)O)c1 [B6, 5-n-octanoylsalicylic acid]
microbial growth percentage ([1]; 0.0125 weight %): 28% | microbial growth percentage ([1]; 0.025 weight %): 2% | microbial growth percentage ([3]; compound alone, 0.025 weight %): 98% | microbial growth percentage ([3]; compound alone, 0.05 weight %): 97% | microbial growth percentage ([3]; compound alone, 0.1 weight %): 17% | microbial growth percentage ([5]; 0.0125 weight %): 66% | microbial growth percentage ([5]; 0.025 weight %): 40% | microbial growth percentage ([5]; 0.05 weight %): 30% | microbial growth percentage ([5]; 0.1 weight %): 1%
